Assay results from PubChem BioAssay (NCI).
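Results reflect a 48-hour exposure of cells in 96-well plates to compound at five concentrations. TGI: total growth inhibition.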

Tests used:
Assay in all cases: inhibition of tumour cell growth, NCI panel, 48 h
SW-620 colon = test system: SW-620 colon
HCT-15 colon = test system: HCT-15 colon
OVCAR-5 ovarian = test system: OVCAR-5 ovarian
RPMI-8226 leukemia = test system: RPMI-8226 leukemia
OVCAR-3 ovarian = test system: OVCAR-3 ovarian
IGROV1 ovarian = test system: IGROV1 ovarian
LOX IMVI melanoma = test system: LOX IMVI melanoma
COLO 205 colon = test system: COLO 205 colon
SK-MEL-5 melanoma = test system: SK-MEL-5 melanoma
MDA-MB-231 breast = test system: MDA-MB-231 breast
M14 melanoma = test system: M14 melanoma
SK-MEL-2 melanoma = test system: SK-MEL-2 melanoma
HS 578T breast = test system: HS 578T breast
A549 NSCLC = test system: A549 NSCLC
UACC-62 melanoma = test system: UACC-62 melanoma
ACHN renal = test system: ACHN renal
TK-10 renal = test system: TK-10 renal
T-47D breast = test system: T-47D breast
RXF 393 renal = test system: RXF 393 renal
SF-539 CNS = test system: SF-539 CNS
NCI-H23 lung = test system: NCI-H23 lung
CAKI-1 renal = test system: CAKI-1 renal
MDA-MB-435 = test system: MDA-MB-435
OVCAR-8 ovarian = test system: OVCAR-8 ovarian
NCI/ADR-RES ovarian = test system: NCI/ADR-RES ovarian
MALME-3M melanoma = test system: MALME-3M melanoma
K-562 leukemia = test system: K-562 leukemia
NCI-H226 lung = test system: NCI-H226 lung
MDA-N = test system: MDA-N
U251 CNS = test system: U251 CNS
EKVX NSCLC = test system: EKVX NSCLC
SK-OV-3 ovarian = test system: SK-OV-3 ovarian
HL-60(TB) leukemia = test system: HL-60(TB) leukemia
SF-268 CNS = test system: SF-268 CNS
UACC-257 melanoma = test system: UACC-257 melanoma
SK-MEL-28 melanoma = test system: SK-MEL-28 melanoma
KM12 colon = test system: KM12 colon
CCRF-CEM leukemia = test system: CCRF-CEM leukemia
MCF7 breast = test system: MCF7 breast
BT-549 breast = test system: BT-549 breast
MOLT-4 leukemia = test system: MOLT-4 leukemia
NCI-H460 lung = test system: NCI-H460 lung
OVCAR-4 ovarian = test system: OVCAR-4 ovarian
A498 renal = test system: A498 renal
HOP-92 NSCLC = test system: HOP-92 NSCLC
HT29 colon = test system: HT29 colon
NCI-H522 lung = test system: NCI-H522 lung
DU-145 prostate = test system: DU-145 prostate
HOP-62 NSCLC = test system: HOP-62 NSCLC
SNB-19 CNS = test system: SNB-19 CNS
SN12C renal = test system: SN12C renal
786-0 renal = test system: 786-0 renal
SR leukemia = test system: SR leukemia
HCT-116 colon = test system: HCT-116 colon
PC-3 prostate = test system: PC-3 prostate
SNB-75 CNS = test system: SNB-75 CNS
UO-31 renal = test system: UO-31 renal
SF-295 CNS = test system: SF-295 CNS
HCC-2998 colon = test system: HCC-2998 colon
XF 498 CNS = test system: XF 498 CNS
LXFL 529 NSCLC = test system: LXFL 529 NSCLC
DMS 273 small cell lung = test system: DMS 273 small cell lung
DLD-1 colon = test system: DLD-1 colon
SNB-78 CNS = test system: SNB-78 CNS
M19-MEL melanoma = test system: M19-MEL melanoma

Cc1[nH]c(=O)nc(N/N=C/c2ccc(Cl)c(Cl)c2)c1C(=O)Nc1ccc(Cl)c(Cl)c1
TGI (SW-620 colon): > 30 µM
TGI (HCT-15 colon): > 42.9 µM
TGI (OVCAR-5 ovarian): > 46.3 µM
TGI (RPMI-8226 leukemia): > 100 µM
TGI (OVCAR-3 ovarian): 24.5 µM
TGI (IGROV1 ovarian): > 39.2 µM
TGI (LOX IMVI melanoma): > 57 µM
TGI (COLO 205 colon): > 44.1 µM
TGI (SK-MEL-5 melanoma): 22.8 µM
TGI (MDA-MB-231 breast): 15.2 µM
TGI (M14 melanoma): 15.7 µM
TGI (SK-MEL-2 melanoma): 49.9 µM
TGI (HS 578T breast): 27.2 µM
TGI (A549 NSCLC): 38.9 µM
TGI (UACC-62 melanoma): 41.2 µM
TGI (ACHN renal): > 53.1 µM
TGI (TK-10 renal): 28 µM
TGI (T-47D breast): 72 µM
TGI (RXF 393 renal): 32.7 µM
TGI (SF-539 CNS): 41.2 µM
TGI (NCI-H23 lung): > 44.9 µM
TGI (CAKI-1 renal): 33.3 µM
TGI (MDA-MB-435): > 39.5 µM
TGI (OVCAR-8 ovarian): 14.8 µM
TGI (NCI/ADR-RES ovarian): > 47.6 µM
TGI (MALME-3M melanoma): > 44.5 µM
TGI (K-562 leukemia): > 100 µM
TGI (NCI-H226 lung): > 52.2 µM
TGI (MDA-N): 39.7 µM
TGI (U251 CNS): 18.5 µM
TGI (EKVX NSCLC): > 100 µM
TGI (SK-OV-3 ovarian): 26.9 µM
TGI (HL-60(TB) leukemia): > 78.2 µM
TGI (SF-268 CNS): 40.7 µM
TGI (UACC-257 melanoma): > 41 µM
TGI (SK-MEL-28 melanoma): 23.4 µM
TGI (KM12 colon): > 22.2 µM
TGI (CCRF-CEM leukemia): > 23 µM
TGI (MCF7 breast): 57 µM
TGI (BT-549 breast): 39.7 µM
TGI (MOLT-4 leukemia): > 100 µM
TGI (NCI-H460 lung): > 49.6 µM
TGI (OVCAR-4 ovarian): 11 µM
TGI (A498 renal): 7.92 µM
TGI (HOP-92 NSCLC): 39.3 µM
TGI (HT29 colon): > 46.5 µM
TGI (NCI-H522 lung): 44.7 µM
TGI (DU-145 prostate): > 41.2 µM
TGI (HOP-62 NSCLC): 24.8 µM
TGI (SNB-19 CNS): 32 µM
TGI (SN12C renal): > 46.5 µM
TGI (786-0 renal): > 39 µM
TGI (SR leukemia): > 100 µM
TGI (HCT-116 colon): > 20.5 µM
TGI (PC-3 prostate): > 51.5 µM
TGI (SNB-75 CNS): 35.3 µM
TGI (UO-31 renal): > 56.2 µM
TGI (SF-295 CNS): > 30.7 µM
TGI (HCC-2998 colon): > 100 µM

CCOc1ccc(NC(=O)c2c(N/N=C/c3ccc(OC)cc3)nc(=O)[nH]c2C)cc1
TGI (HCT-15 colon): > 100 µM
TGI (RPMI-8226 leukemia): > 100 µM
TGI (IGROV1 ovarian): > 100 µM
TGI (XF 498 CNS): > 100 µM
TGI (COLO 205 colon): > 100 µM
TGI (LXFL 529 NSCLC): > 100 µM
TGI (M14 melanoma): > 100 µM
TGI (SK-MEL-2 melanoma): > 100 µM
TGI (UACC-62 melanoma): > 100 µM
TGI (ACHN renal): > 100 µM
TGI (SF-539 CNS): 91 µM
TGI (NCI-H23 lung): > 100 µM
TGI (CAKI-1 renal): > 100 µM
TGI (DMS 273 small cell lung): > 100 µM
TGI (MALME-3M melanoma): > 100 µM
TGI (K-562 leukemia): > 100 µM
TGI (NCI-H226 lung): > 100 µM
TGI (SK-OV-3 ovarian): 83.1 µM
TGI (HL-60(TB) leukemia): > 100 µM
TGI (DLD-1 colon): > 100 µM
TGI (SF-268 CNS): > 100 µM
TGI (SK-MEL-28 melanoma): > 100 µM
TGI (CCRF-CEM leukemia): > 100 µM
TGI (MOLT-4 leukemia): > 100 µM
TGI (SNB-78 CNS): > 100 µM
TGI (NCI-H460 lung): > 100 µM
TGI (OVCAR-4 ovarian): 88.4 µM
TGI (A498 renal): 39.4 µM
TGI (HOP-92 NSCLC): > 100 µM
TGI (NCI-H522 lung): 69.7 µM
TGI (HOP-62 NSCLC): > 100 µM
TGI (SN12C renal): > 100 µM
TGI (786-0 renal): > 100 µM
TGI (SR leukemia): > 100 µM
TGI (HCT-116 colon): > 100 µM
TGI (SNB-75 CNS): 96.5 µM
TGI (UO-31 renal): > 100 µM
TGI (M19-MEL melanoma): > 100 µM
TGI (HCC-2998 colon): > 100 µM
